By Ki is commonly meant a measure of affinity in units of concentration, obtained from inhibition or displacement. In general, IC50 refers to the concentration that inhibits the measured activity by half. A word on the inhibition: it is how much of the control response was suppressed. For orientation: solubility means the concentration that dissolves in the medium under given conditions. A higher solubility goes with a readily soluble substance.

Each structure is given as a SMILES string. In brackets after ≈: the same amount, converted by molar mass. Activity calls are given as the source filed them. No cut-off for these calls is given here. Where only a bound is given, the exact number is not on record here.

Data on two molecules can be found in ChEMBL document CHEMBL5550199, “Rational In Silico Design of Selective TMPRSS6 Peptidomimetic Inhibitors via Exploitation of the S2 Subpocket” (J Med Chem, 2024).

Data set [1] concerns the target T1, Suppressor of tumorigenicity 14 protein (Homo sapiens, UniProt Q9Y5Y6).
T1 sequence (Q9Y5Y6 whole entry): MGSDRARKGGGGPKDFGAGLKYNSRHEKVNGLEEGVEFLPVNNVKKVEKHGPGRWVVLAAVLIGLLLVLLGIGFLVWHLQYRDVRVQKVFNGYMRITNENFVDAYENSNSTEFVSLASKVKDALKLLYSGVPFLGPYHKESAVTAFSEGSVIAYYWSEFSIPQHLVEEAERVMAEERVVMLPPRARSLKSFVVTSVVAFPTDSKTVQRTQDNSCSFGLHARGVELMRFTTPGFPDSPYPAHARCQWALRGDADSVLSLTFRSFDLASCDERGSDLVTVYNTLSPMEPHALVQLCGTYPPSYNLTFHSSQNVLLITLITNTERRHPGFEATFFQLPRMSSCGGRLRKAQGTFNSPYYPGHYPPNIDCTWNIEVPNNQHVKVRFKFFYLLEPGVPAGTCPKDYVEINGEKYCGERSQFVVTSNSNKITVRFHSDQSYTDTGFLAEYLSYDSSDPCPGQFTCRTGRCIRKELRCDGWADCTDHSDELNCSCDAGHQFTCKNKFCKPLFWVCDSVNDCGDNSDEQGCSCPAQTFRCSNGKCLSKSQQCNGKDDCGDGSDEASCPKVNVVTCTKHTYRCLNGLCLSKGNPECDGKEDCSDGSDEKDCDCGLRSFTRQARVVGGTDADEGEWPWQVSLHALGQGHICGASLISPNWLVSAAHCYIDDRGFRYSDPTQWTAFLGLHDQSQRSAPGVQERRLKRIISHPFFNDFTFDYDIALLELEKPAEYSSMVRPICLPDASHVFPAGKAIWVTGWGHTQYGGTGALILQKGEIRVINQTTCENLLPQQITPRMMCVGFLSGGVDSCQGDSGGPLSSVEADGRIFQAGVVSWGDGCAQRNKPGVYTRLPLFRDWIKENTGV
Description: Mixed inhibition of recombinant human Matriptase using Boc-QAR-AMC as substrate assessed as inhibition constant by fluorescence based analysis.

Data set [2] deals with T2, Transmembrane protease serine 6 (Homo sapiens, UniProt Q8IU80).
T2 sequence (Q8IU80 whole entry): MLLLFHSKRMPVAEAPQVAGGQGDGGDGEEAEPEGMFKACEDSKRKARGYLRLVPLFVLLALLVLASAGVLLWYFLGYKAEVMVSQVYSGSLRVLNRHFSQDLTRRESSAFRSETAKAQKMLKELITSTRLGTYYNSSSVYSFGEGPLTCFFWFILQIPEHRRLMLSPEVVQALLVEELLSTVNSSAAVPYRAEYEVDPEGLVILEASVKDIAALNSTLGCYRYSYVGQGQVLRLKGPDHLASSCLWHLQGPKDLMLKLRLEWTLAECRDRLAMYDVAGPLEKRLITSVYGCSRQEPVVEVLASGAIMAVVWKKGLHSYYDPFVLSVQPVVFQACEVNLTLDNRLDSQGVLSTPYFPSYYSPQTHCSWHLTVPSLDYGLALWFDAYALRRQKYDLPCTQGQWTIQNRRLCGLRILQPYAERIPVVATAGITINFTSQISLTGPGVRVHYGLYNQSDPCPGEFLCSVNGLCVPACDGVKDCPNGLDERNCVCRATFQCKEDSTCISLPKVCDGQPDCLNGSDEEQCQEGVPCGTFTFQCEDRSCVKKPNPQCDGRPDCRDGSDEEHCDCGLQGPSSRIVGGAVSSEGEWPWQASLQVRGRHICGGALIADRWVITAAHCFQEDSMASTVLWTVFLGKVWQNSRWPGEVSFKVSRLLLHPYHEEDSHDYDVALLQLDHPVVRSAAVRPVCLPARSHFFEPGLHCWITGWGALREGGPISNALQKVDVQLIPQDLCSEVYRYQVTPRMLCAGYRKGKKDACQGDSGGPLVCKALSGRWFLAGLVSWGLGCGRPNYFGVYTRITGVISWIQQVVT
Put plainly: Competitive tight binding inhibition of recombinant human TMPRSS6 using Boc-QAR-AMC as substrate assessed as inhibition constant by fluorescence based analysis.

Data set [3] is filed under the species Homo sapiens. Put plainly: Selectivity index, ratio of Ki for mixed inhibition of recombinant human Matriptase using Boc-QAR-AMC as substrate assessed as inhibition constant by fluorescence based analysis to Ki for competitive tight binding inhibition of recombinant human TMPRSS6 using Boc-QAR-AMC as substrate assessed as inhibition constant by fluorescence based analysis.

Data set [4] has as its target T3, Prothrombin (Homo sapiens, UniProt P00734). Description: Inhibition of recombinant human thrombin using Boc-QAR-AMC as substrate assessed as inhibition constant by fluorescence based analysis.
For data set [5], the target named is T4, Coagulation factor X (Homo sapiens, UniProt P00742). Put plainly: Inhibition of recombinant human FXA using Boc-QAR-AMC as substrate assessed as inhibition constant by fluorescence based analysis.
Data set [6] has as its target T5, Furin (Homo sapiens, UniProt P09958). Put plainly: Inhibition of recombinant human furin using Boc-RVRR-AMC as substrate assessed as inhibition constant by fluorescence based analysis.
Data set [7] deals with T2, Transmembrane protease serine 6. Description: Inhibition of human TMPRSS6 transfected in HEK293SL cells using Boc-QAR-AMC as substrate measured for 24 hrs. The format is cell-based.
The target of data set [8] is T1, Suppressor of tumorigenicity 14 protein. Put plainly: Inhibition of human Matriptase transfected in HEK293SL cells using Boc-QAR-AMC as substrate measured for 24 hrs. The format is cell-based.
For data set [9], the species on record is Homo sapiens. Put plainly: Selectivity index, ratio of IC50 for inhibition of human Matriptase transfected in HEK293SL cells using Boc-QAR-AMC as substrate to IC50 for inhibition of human TMPRSS6 transfected in HEK293SL cells using Boc-QAR-AMC as substrate. The format is cell-based.
Data set [10] in a line: Stability in Sprague-Dawley rat plasma assessed as parent compound remaining at 24 hrs by UPLC-MS analysis. The format is ADME, cell-free.
Data set [11] can be described thus: Metabolic stability in Sprague-Dawley rat microsome assessed as half life measured for 120 mins in presence of NADPH by UPLC-MS analysis. In kind it is ADME. The following applies: microsomes, 2 h.
Data set [12] can be described thus: Metabolic stability in Sprague-Dawley rat microsome assessed as intrinsic clearance measured for 120 mins in presence of NADPH by UPLC-MS analysis. The format is ADME. Particulars: microsomes, 2 h.
Data set [13] can be described thus: Apparent Permeability of compound in PBS buffer at pH 7.4 incubated for 17 hrs by PAMPA assay. The format is ADME. Particulars: pH 7.4, 17 h. A general note: The PAMPA barrier holds no transporters, so it reflects passive diffusion.
In data set [14] the test system is Caco-2. Put plainly: Disruption of epithelial integrity in human Caco-2 cells assessed as change in TEER modulation after 8 days. In kind it is functional, cell-based. The following applies: Caco-2, 192 h.
For data set [15], the target named is T2, Transmembrane protease serine 6. Description: Binding affinity to recombinant human TMPRSS6 using Boc-QAR-AMC as substrate assessed as inhibition constant by fluorescence based analysis.
The target of data set [16] is T1, Suppressor of tumorigenicity 14 protein. Put plainly: Binding affinity to recombinant human Matriptase using Boc-QAR-AMC as substrate assessed as inhibition constant by fluorescence based analysis.
The species entered for data set [17] is Homo sapiens. Put plainly: Selectivity index, ratio of Ki for binding affinity to recombinant human Matriptase using Boc-QAR-AMC as substrate assessed as inhibition constant by fluorescence based analysis to Ki for binding affinity to recombinant human TMPRSS6 using Boc-QAR-AMC as substrate assessed as inhibition constant by fluorescence based analysis.
The target in data set [18] is T6, Transmembrane protease serine 6 (Homo sapiens) (UniProt Q8IU80).
T6 sequence (whole entry): T2 sequence (Q8IU80 whole entry)
Description: Inhibition of recombinant human TMPRSS6 at 100 nM by Michaelis-Menten analysis relative to control.

Data set [19] concerns the target T7, Suppressor of tumorigenicity 14 protein (Homo sapiens) (UniProt Q9Y5Y6).
T7 sequence (whole entry): T1 sequence (Q9Y5Y6 whole entry)
Put plainly: Inhibition of recombinant human Matriptase at 100 nM by Michaelis-Menten analysis relative to control.

The target of data set [20] is T1, Suppressor of tumorigenicity 14 protein. Description: Competitive tight binding inhibition of recombinant human Matriptase using Boc-QAR-AMC as substrate assessed as inhibition constant by fluorescence based analysis.
Data set [21] is filed under the species Homo sapiens. Put plainly: Selectivity index, ratio of Ki for competitive tight binding inhibition of recombinant human Matriptase using Boc-QAR-AMC as substrate assessed as inhibition constant by fluorescence based analysis to Ki for competitive tight binding inhibition of recombinant human TMPRSS6 using Boc-QAR-AMC as substrate assessed as inhibition constant by fluorescence based analysis.

The target in data set [22] is T3, Prothrombin. Put plainly: Inhibition of thrombin (unknown origin).
The target of data set [23] is T4, Coagulation factor X. Put plainly: Inhibition of FXA (unknown origin).
Data set [24] addresses T5, Furin. Description: Inhibition of furin (unknown origin).
Data set [25] in a line: Cytotoxicity against HEK cells assessed as reduction in cell viability measured for 24 hrs by celltiter-glo 2.0 assay. The format is toxicity, cell-based. The following applies: human. For orientation: Cellular ATP, detected with luciferase, serves as a proxy for viable cell number.
A short description of data set [26]: Solubility of compound in PBS at pH 7.4 measured for 90 mins by UPLC analysis. The format is physicochemical. Particulars: buffer, pH 7.4, 1.5 h.
Data set [27] concerns Caco-2. Put plainly: Disruption of epithelial integrity in human Caco-2 cells assessed as change in TEER modulation at 10 uM after 8 days. In kind it is functional, cell-based. Particulars: time 8.0 day.

T5 sequence (P09958 whole entry): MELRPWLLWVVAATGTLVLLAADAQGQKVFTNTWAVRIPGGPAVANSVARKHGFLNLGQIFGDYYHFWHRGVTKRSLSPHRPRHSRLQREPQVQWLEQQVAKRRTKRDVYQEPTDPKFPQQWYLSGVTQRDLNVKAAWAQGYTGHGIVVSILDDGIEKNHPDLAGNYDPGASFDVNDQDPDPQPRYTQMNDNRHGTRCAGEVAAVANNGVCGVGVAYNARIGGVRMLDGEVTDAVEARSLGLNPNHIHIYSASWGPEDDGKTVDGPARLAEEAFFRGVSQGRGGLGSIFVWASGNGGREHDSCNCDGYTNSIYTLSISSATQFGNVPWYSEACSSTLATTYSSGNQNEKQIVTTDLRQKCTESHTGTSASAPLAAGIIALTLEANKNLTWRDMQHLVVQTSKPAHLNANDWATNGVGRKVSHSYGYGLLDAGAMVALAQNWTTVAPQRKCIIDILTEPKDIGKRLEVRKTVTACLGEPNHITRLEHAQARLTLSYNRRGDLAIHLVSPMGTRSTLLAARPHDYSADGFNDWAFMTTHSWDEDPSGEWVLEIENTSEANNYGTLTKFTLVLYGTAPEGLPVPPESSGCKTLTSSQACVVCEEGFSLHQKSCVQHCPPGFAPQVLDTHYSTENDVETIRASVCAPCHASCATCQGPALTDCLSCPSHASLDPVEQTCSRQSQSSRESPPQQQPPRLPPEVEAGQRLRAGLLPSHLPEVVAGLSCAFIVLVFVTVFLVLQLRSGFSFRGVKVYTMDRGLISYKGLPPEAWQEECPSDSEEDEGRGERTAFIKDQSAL
T4 sequence (P00742 41-179 limits assumed): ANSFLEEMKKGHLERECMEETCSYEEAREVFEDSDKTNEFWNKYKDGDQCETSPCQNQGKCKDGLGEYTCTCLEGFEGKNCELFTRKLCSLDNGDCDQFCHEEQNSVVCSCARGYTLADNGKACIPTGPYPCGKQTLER
T4 sequence (P00742 235-488 limits assumed): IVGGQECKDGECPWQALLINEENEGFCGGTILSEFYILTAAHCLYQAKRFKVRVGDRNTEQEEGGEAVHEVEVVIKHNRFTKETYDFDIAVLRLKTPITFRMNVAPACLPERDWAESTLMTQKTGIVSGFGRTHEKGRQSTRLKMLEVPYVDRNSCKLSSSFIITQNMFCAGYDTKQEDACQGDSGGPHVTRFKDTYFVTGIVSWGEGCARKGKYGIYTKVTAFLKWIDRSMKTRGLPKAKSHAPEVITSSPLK

In the case of `N=C(N)NCCC[C@H](NC(=O)[C@@H](NC(=O)[C@H](CCc1ccccc1)NC(=O)CCc1ccccc1)C1CCCCC1)C(=O)c1nc2ccccc2s1`, the Ki in [1] is 618 nM; in data set [2] it was 5.2 nM; on Prothrombin [4], 395 nM; at Coagulation factor X [5], more than 10000 nM; at Furin [6], more than 10000 nM. For the same molecule, the Ratio Ki in the data set filed under Homo sapiens [3] worked out at 119. The IC50 in data set [7] was determined as 332 nM; in data set [8], 6070 nM; in the data set on Caco-2 [14], 6100 nM. In addition, the Ratio IC50 in the data set filed under Homo sapiens [9] is 18. The Stability in data set [10] is 100%. For the same molecule, the t1/2 in [11] is more than 2 h. Also, in data set [12], the CLH was 1.4 µL/min/mg. Besides, in data set [13], the Papp was 0.01 10^-6 cm/s.
Take `CC(C)[C@H](NC(=O)[C@H](Cc1cscn1)NC(=O)CCc1ccccc1)C(=O)N[C@@H](CCCNC(=N)N)C(=O)c1nc2ccccc2s1`: the Ki turned out to be 1.2 nM in data set [15]; 8.6 nM in [16]; 4.8 nM in data set [20]; 0.6 nM in data set [2]; 53 nM at Prothrombin [4]; 2320 nM on Coagulation factor X [5]. The Ki at Furin [6] is more than 10000 nM; on Prothrombin [22], 1100 nM; at Coagulation factor X [23], 323 nM; at Furin [24], more than 30000 nM. Also, the Ratio Ki in the data set listed under Homo sapiens [17] worked out at 7.2; in the data set filed under Homo sapiens [21], 8. Further, the inhibition in data set [18] turned out to be 1%; in [19] it was 5%. Further, in [25], the Activity result is recorded as “Non-Toxic”. In addition, the IC50 came out at 4.4 nM in data set [7], 18.1 nM in data set [8] and 18.1 nM in the data set on Caco-2 [14]. Further, the Ratio IC50 in the data set filed under Homo sapiens [9] stood at 4. The solubility in data set [26] came out at 250 µM (≈ 169 µg/mL). In addition, the Stability in data set [10] is 6%. The t1/2 in [11] was more than 2 h. For the same molecule, the CLH in [12] was 1.12 µL/min/mg. The Papp in data set [13] is 0.004 10^-6 cm/s. The result with Caco-2 [27] was Active.
